According to US20090170067A1, “Simian tropic, recombinant human immunodeficiency-1 viruses” (The Rockefeller University, priority 2006, published 2009):

Tests used:
HIV-1NL4-3 [1] = test: Sensitivity to RT inhibitors, TZM luciferase infection assay; assay type: cell-based; conditions: TZM-bl indicator cells, FIG. 5A,B
SIVMAC239 [2] = test: as above; assay type: cell-based, simian immunodeficiency virus; conditions: TZM-bl indicator cells, FIG. 5A,B
stHIV/KB9 [3] = test: as above; assay type: cell-based, simian-tropic HIV-1; conditions: TZM-bl indicator cells, FIG. 5A,B
HIV-1NL4-3 [4] = test: Protease inhibitor virus inhibition assay (infected HUT-R5 cells, readout on TZM-bl); assay type: cell-based; conditions: infected HuT-CCR5 cells, FIG. 5C
stHIV/KB9 [5] = test: as above; assay type: cell-based, simian-tropic HIV-1; conditions: infected HuT-CCR5 cells, FIG. 5C
SIVMAC239 [6] = test: as above; assay type: cell-based, simian immunodeficiency virus; conditions: infected HuT-CCR5 cells, FIG. 5C
[7] = target: rhesus macaque APOBEC3G (rhesus macaque); test: cell-based or functional assay
Sequence of rhesus macaque APOBEC3G (rhesus macaque) (Q7YR24 whole entry): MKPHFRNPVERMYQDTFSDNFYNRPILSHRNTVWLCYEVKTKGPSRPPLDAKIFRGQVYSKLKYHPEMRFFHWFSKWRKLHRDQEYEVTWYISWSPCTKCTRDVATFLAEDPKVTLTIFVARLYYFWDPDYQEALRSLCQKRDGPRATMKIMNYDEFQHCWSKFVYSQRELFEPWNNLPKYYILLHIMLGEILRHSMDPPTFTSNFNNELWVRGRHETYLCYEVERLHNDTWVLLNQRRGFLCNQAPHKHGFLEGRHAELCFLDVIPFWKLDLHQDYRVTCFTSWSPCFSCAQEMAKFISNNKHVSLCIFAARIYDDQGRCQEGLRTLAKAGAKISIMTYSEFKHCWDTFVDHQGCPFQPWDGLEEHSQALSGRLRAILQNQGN

[8] = target: HIV-1 capsid (CA) protein of the HIV-1NL4-3-based viruses (HIV/KB9/GFP, HIV(SVif)/KB9/GFP) (HIV-1 (NL4-3)) (UniProt P12493); test: cell-based or functional assay

With `Cc1cn([C@H]2C[C@H](N=[N+]=[N-])[C@@H](CO)O2)c(=O)[nH]c1=O` [AZT] the “inhibition of infection (luciferase, percentage of uninhibited level), result in words” value (HIV-1NL4-3 [1]) was “equally sensitive”, the “inhibition of infection (luciferase, percentage of uninhibited level), result in words” value (SIVMAC239 [2]) was “equally sensitive” and the “inhibition of infection (luciferase, percentage of uninhibited level), result in words” value (stHIV/KB9 [3]) was “equally sensitive”.
In the case of `CC(C)CN(C[C@@H](O)[C@H](Cc1ccccc1)NC(=O)O[C@H]1CCOC1)S(=O)(=O)c1ccc(N)cc1` [amprenavir], the “inhibition of infectious virus generation, result in words” value (HIV-1NL4-3 [4]) is reported as “effective inhibitors”, the “inhibition of infectious virus generation, result in words” value (stHIV/KB9 [5]) is reported as “potently inhibited” and the “inhibition of infectious virus generation, result in words” value (SIVMAC239 [6]) is reported as “ineffective or poorly inhibitory”.
`Cc1ccnc2c1NC(=O)c1cccnc1N2C1CC1` [nevirapine] was tested, and the “inhibition of infection (luciferase, percentage of uninhibited level), result in words” value (HIV-1NL4-3 [1]) was “effective inhibitors”, the “inhibition of infection (luciferase, percentage of uninhibited level), result in words” value (SIVMAC239 [2]) was “ineffective or poorly inhibitory” and the “inhibition of infection (luciferase, percentage of uninhibited level), result in words” value (stHIV/KB9 [3]) was “potently inhibited”.
“HIV-1 Vif protein of the HIV-1NL4-3-based viruses (HIV/KB9/GFP, B3HIV(SCA)/KB9/GFP) (from UniProt P12504 1-192)” gave a single-cycle infectivity on CEMx174 cells of virus made in 293T cells with or without rhAPOBEC3G [7] of 30 fold.
In the case of “SIVMAC Vif protein (SIVMAC239) as expressed by HIV(SVif)/KB9/GFP and B3HIV(SCA,SVif)/KB9/GFP”, the fold decrease in single-cycle infectivity on CEMx174 cells of virus made in 293T cells with or without rhAPOBEC3G [7] is reported as less than 2 fold.
Compound “rhesus macaque TRIM5α (from UniProt Q0PF16 1-497)” has a single-cycle infectivity (GFP-positive cells) in CEMx174 cells expressing rhTRIM5α against unmodified CEMx174 cells [8] of 30 fold and a single-cycle infectivity (GFP-positive cells) in rhesus macaque 221 cells against unmodified CEMx174 cells [8] of 70 fold.
